Experimental data taken from US20240252508A1, “Novel glucose uptake inhibitors for use in the treatment of cancer” (NOVELYEAST BV, priority 2021, published 2024).

Experiments:
[1] = tested on: A549 lung adenocarcinoma cells; experiment: A549 cell proliferation / growth inhibition; format: cell-based, human; conditions: for Selected from primary screen for growth inhibition of A549 cells at 50 μM: 50 μM compound, 1 mM glucose; for Selected for having an IC50 ratio (10 mM glucose: 1 mM glucose) of A549 growth higher than WBC-A: IC50 on 10 mM vs 1 mM glucose, compared with WBC-A
Protocol: The analog library (n=203) was screened for inhibition of growth of A549 cells on RPMI medium supplemented with 1 mM glucose. DMSO (green bar) and WBC-A (orange bar) served as negative and positive control, respectively. In addition, the reference glucose transport inhibitors STF-31, Fasentin, BAY-876, WZB-117 and Cytochalasin B were included and indicated in red. Compounds were added at 50 μM concentration. Number of cells was determined by counting nuclei stained by Hoechst after three days of growth.
For both adherent A549 and MCF10Δ H-RAS^V12 cell lines, growth curves were established using the IncuCyte® ZOOM technology. By collecting phase contrast images, the IncuCyte® software provides a calculated confluency percentage from which growth curves can be deducted.
Cells were seeded at a density of 1000-1500 cells/well in a Nunc-Edge™ 96-well plate (Thermo Fisher Scientific) and growth was typically measured over 3 to 5 days. For the measurement of apoptosis induction using the MCF10Δ H-RAS^V12 cell line, the IncuCyte® Caspase-3/7 green dye was added to the medium in the recommended concentration at the beginning of the growth curve experiment. Apoptosis was detected by taking fluorescent images by excitation at 488 nm followed by IncuCyte® software analysis. Cell growth of the KMS-12-PE multiple myeloma cell line, which grows in suspension, was measured by manual cell counting. Cells were initially seeded at a density of 10^4 cells/well and incubated for 4 days after which the cell number was counted. For all cell lines, the same medium used for pregrowth was also used for the growth curve experiment, albeit with different glucose concentrations depending on the experimental design. With compound administration, the final concentration of DMSO never exceeded 0.1%. Typically, at least four technical repeats were included per condition.

tps1Δ cells = experiment: Growth rescue of tps1Δ strain on glucose (growth curves, 2% galactose medium); format: cell-based, S. cerevisiae; conditions: 100 μM compound, 2.5 mM glucose
Protocol: Growth curves were made by measuring OD595 in a 96-well plate using the Multiskan™ FC Microplate Photometer (Thermo Fisher Scientific). Typically, for tps1Δ rescue experiments (FIG. 2b-e; FIG. 4a), cells were (pre)grown in Complete Synthetic medium containing 2% galactose.
Compounds were always added 10 min prior to glucose addition to ensure maximal interaction between the cells and compounds. Cells originating from the preculture were harvested, washed in medium without sugar, after which they were resuspended to an OD of 0.1 in 200 μL of the appropriate medium. At least three technical replicates were included per condition. OD595 was measured at 30° C. every 30 min with a 10-min shaking interval.

| Structure (SMILES) | Selected from primary screen for growth inhibition of A549 cells at 50 μM [1] | Selected for having an IC50 ratio (10 mM glucose: 1 mM glucose) of A549 growth higher than WBC-A [1] | Rescue of the tps1Δ strain on 2.5 mM glucose at 100 μM (tps1Δ cells) |
| --- | --- | --- | --- |
| Cc1nc(NCC(=O)Nc2ccccc2Br)c2c(-c3cccs3)csc2n1 [15C] | Yes | Higher IC50 ratio and confirmed | No |
| CCCc1nnc(Sc2nc(CN3CCOCC3)nc3scc(-c4cccs4)c23)[nH]1 [62C] | Yes | Lower IC50 ratio | No |
| Cc1nc(Sc2nnnn2-c2ccccc2C)c2c(-c3cccs3)csc2n1 [20C] | Yes | Lower IC50 ratio | No |
| Cc1nc(Sc2nnnn2C)c2c(-c3cccs3)csc2n1 [39A] | Yes | Lower IC50 ratio | No |
| Cc1cc(NC(=O)CSc2nnc(C)c3cnn(-c4ccccc4)c23)no1 [72C] | No | – | No |
| Cc1nnc(Sc2ncnc3scc(-c4ccccc4)c23)n1C [19A] | No | – | No |
| Cc1nc(Sc2nnnn2C2CC2)c2c(-c3ccccc3)csc2n1 [56A] | Yes | Lower IC50 ratio | No |
| c1ccc(-c2cc3c(N4CCCC4c4nnc5n4CCCCC5)ncnc3s2)cc1 (stereo not shown) [22A] | No | – | No |
| Cc1sc2nc(CN3CCOCC3)nc(Sc3nnc4n3CCCCC4)c2c1C [28A] | No | – | No |
| Cc1nc(Sc2nnc(-c3ccncc3)n2C)c2c(-c3cccs3)csc2n1 [26A] | Yes | Lower IC50 ratio | Yes |
| Cc1nc(SCCO)c2c3c(sc2n1)CCCC3 [22C] | No | – | No |
| CC1CN(C(=O)CSc2ncnc3scc(-c4ccc(F)cc4)c23)CCO1 (stereo not shown) [37C] | No | – | No |
| COC(=O)CSc1ncnc2scc(-c3ccccc3)c12 [86C] | No | – | No |
| Cn1nnnc1Sc1nc(CN2CCOCC2)nc2scc(-c3cccs3)c12 [54A] | Yes | Lower IC50 ratio | No |
| Nc1nc(CSc2nnc3n2CCCCC3)nc2sc3c(c12)CCCCC3 [35A] | Yes | Lower IC50 ratio | No |
| CSc1nc(C)nc2scc(-c3cccs3)c12 [45A] | No | – | No |
| [O-][S+](CCSc1ncnc2scc(-c3ccc(F)cc3)c12)c1ccccc1 (stereo not shown) [45C] | Yes | Lower IC50 ratio | No |
| COC(=O)CSc1nc(CN2CCOCC2)nc2scc(-c3cccs3)c12 [37B] | No | – | No |
| Cc1ccc(-c2csc3ncnc(SCC(=O)N(C)Cc4ccco4)c23)cc1 [20B] | Yes | Lower IC50 ratio | No |
| CCCc1nnc(Sc2nc(C)nc3scc(-c4cccs4)c23)[nH]1 [50C] | Yes | Lower IC50 ratio | Yes |

| Structure (SMILES) | Selected from primary screen for growth inhibition of A549 cells at 50 μM [1] | Selected for having an IC50 ratio (10 mM glucose: 1 mM glucose) of A549 growth higher than WBC-A [1] | Rescue of the tps1Δ strain on 2.5 mM glucose at 100 μM (tps1Δ cells) |
| --- | --- | --- | --- |
| Cc1nnc(SCC(=O)NC(C)(C)C)c2c1cnn2-c1ccccc1 [75C] | No | – | No |
| COCCNC(=O)CN(C)c1nc(C)nc2scc(-c3cccs3)c12 [23B] | Yes | Lower IC50 ratio | No |
| Cc1sc2nc(-c3cccnc3)nc(SCCO)c2c1-c1ccccc1 [13C] | Yes | Lower IC50 ratio | No |
| Cc1nc(NCCN2CCOCC2)c2c(-c3ccccc3)csc2n1 [85C] | Yes | Higher IC50 ratio, but false-positive | No |
| CNc1nnc(Sc2nc(C)nc3scc(-c4cccs4)c23)s1 [32A] | No | – | No |
| c1cnc(Sc2nc(CN3CCOCC3)nc3scc(-c4cccs4)c23)nc1 [1C] | Yes | Lower IC50 ratio | No |
| Cc1nc(Sc2nnnn2Cc2ccco2)c2c(-c3cccs3)csc2n1 [35C] | Yes | Lower IC50 ratio | No |
| Cc1ccc(-c2csc3ncnc(Sc4nc(C5CCCCC5)n(-c5ccccc5)n4)c23)cc1 [1A] | No | – | No |
| Cc1nc(N2CCCC(c3nncn3C)C2)c2c(-c3cccs3)csc2n1 (stereo not shown) [38A] | No | – | No |
| OCCSc1ncnc2scc(-c3ccc(F)cc3)c12 [56C] | No | – | No |
| COc1cccc(NC(=O)CSc2nc(C)nc3scc(-c4cccs4)c23)c1 [45B] | Yes | Higher IC50 ratio, but false-positive | No |
| O=C(CSc1ncnc2scc(-c3ccccc3)c12)N1CCOCC1 [60C] | No | – | No |
| c1ccc(Cn2c(CN3CCCC3)nnc2Sc2ncnc3scc(-c4ccccc4)c23)cc1 [27A] | Yes | Lower IC50 ratio | No |
| COc1ccc(-c2csc3nc(C)nc(Sc4nnc(-c5ccoc5C)n4C)c23)cc1OC [20A] | Yes | Lower IC50 ratio | No |
| Cc1nc(NCC(=O)NCc2ccco2)c2c(-c3ccccc3)csc2n1 [4C] | Yes | Higher IC50 ratio and confirmed | No |
| Cc1nc(SCCOc2ccc(F)cc2)c2c(-c3cccs3)csc2n1 [32C] | No | – | No |
| Cc1nc(SCCC#N)c2c(-c3cccs3)csc2n1 [15A] | No | – | No |
| Cc1nc(Sc2nnnn2C2CC2)c2c(-c3cccs3)csc2n1 [44C] | Yes | Lower IC50 ratio | No |
| Cc1nc(SCC(=O)Nc2ccc(OC(F)(F)F)cc2)c2c(-c3cccs3)csc2n1 [5C] | Yes | Lower IC50 ratio | No |
